Assay results published in paper PMC6678097, “Machilin A Inhibits Tumor Growth and Macrophage M2 Polarization Through the Reduction of Lactic Acid” (Cancers, 2019).

Assays:
[1] = biological target: LDHA (Homo sapiens, UniProt P00338); experiment: Surface plasmon resonance (SPR) biosensor analysis of LDHA binding; design: Full-length LDHA (residues 1–331) was obtained from cDNA by polymerase chain reaction (PCR); inferred from pET-28a vector and Ni-NTA purification; made in house; host or cells: E. coli BL21 (DE3); settings: 25 °C, read-out: apparent KD of binding to LDHA
Protocol: The apparent dissociation constants (KD) between LDHA and Machilin A were measured using a Biacore T100 biosensor (GE Healthcare, Chicago, IL, USA). […] A total of 150 μL LDHA (50 μg/mL) in 10 mM sodium acetate (pH 5.5) was coupled via injection for 15 min at 10 μL/min, followed by injection of 1 M ethanolamine to deactivate the residual amines. To measure kinetics at 25 °C, chemical compounds with concentrations ranging from 500 to 62 μM were prepared by dilution in running buffer (10 mM HEPES, 150 mM NaCl, 0.005% v/v surfactant P20, and 1% DMSO) at a pH of 7.4. The immobilized ligand was regenerated by injecting 10 μL of 50 mM NaOH at a rate of 10 μL/min during the cycles.

[2] = tested on: DLD-1; experiment: Lactate production assay; format: cell-based, human; settings: normoxic
Protocol: (§1) Cellular lactate production was measured using a lactate fluorometric assay kit (Biovision, Milpitas, CA, USA) as described previously. Phenol red-free DMEM medium without FBS was added to a six-well plate containing subconfluent cells which were then incubated for 1 h at 37 °C. After incubation, the medium of each well was tested using a lactate assay kit (Biovision, Milpitas, CA, USA).

[3] = tested on: HT29; experiment: Lactate production assay; format: cell-based, human; settings: for Lactate (production): normoxic
Protocol: as §1

[4] = tested on: R.K.O; experiment: Lactate production assay; format: cell-based, human; settings: normoxic
Protocol: as §1

[5] = tested on: MCF7; experiment: Lactate production assay; format: cell-based, human; settings: normoxic
Protocol: as §1

[6] = tested on: WiDr; experiment: Lactate production assay; format: cell-based, human; settings: normoxic
Protocol: as §1

[7] = tested on: Huh7; experiment: Lactate production assay; format: cell-based, human; settings: normoxic
Protocol: as §1

[8] = tested on: Hep3B; experiment: Lactate production assay; format: cell-based, human; settings: normoxic
Protocol: as §1

[9] = tested on: NCI-H1793; experiment: Lactate production assay; format: cell-based, human; settings: normoxic
Protocol: as §1

[10] = tested on: HepG2; experiment: Lactate production assay; format: cell-based, human; settings: normoxic
Protocol: as §1

[11] = tested on: HCC-95; experiment: Lactate production assay; format: cell-based, human; settings: normoxic
Protocol: as §1

[12] = In vivo toxicity to liver and kidney (serum AST, ALT, creatinine, BUN); settings: mice with allograft tumors
Protocol: LLC and CT26 cells were suspended separately in PBS (5 × 10^5 cells/100 µL PBS) and inoculated in subcutaneously on the back of 7-week-old C57BL/6 mice and BALB/c mice respectively (Orient Bio Inc., Seongnam, Korea; n = 7). One day after the inoculation with tumor cells, mice of the control group (n = 7) were intraperitoneally administrated 100 µL of PBS per day for 18 days. Each of the MA-treated mice were intraperitoneally administrated 0.02, 0.2, or 1 mg MA, respectively, in 100 µL PBS per 20 g body weight, each day for 18 days. All mice were euthanized 19 days after inoculation with the tumor cells, and the tumors were excised and weighed. Length (l) and width (w) of each tumor were measured using a caliper, and the respective volume (V) was calculated according to the formula V = [(l × w^2)/2]. Tumors were immediately removed from euthanized mice and prepared for histological examinations. To test liver and kidney toxicity of MA, at the end of the in vivo allograft experiment blood was collected from each mouse and serum was separated. Biochemical analyses of aspartate aminotransferase (AST), alanine aminotransferase (ALT), creatinine, and blood urea nitrogen (BUN) were performed using a commercial service (Green Cross Co., Yongin, Korea). […]

[13] = tested on: RAW264.7 macrophage cells; experiment: Viability of macrophage cells, MTT; format: cell-based; settings: direct treatment, 24 h
Protocol: Figure S10. The viabilities of HUVECs and RAW264.7 cells on MA. (A) HUVECs were treated with indicated concentration of machilin A for 24 h. The viabilities of cells were evaluated by MTT assay.
(B ) HUVECs seeded to the Matrigel-coated wells treated with machilin A for 24 h. ( C) Raw 264.7 macrophage cells were treated with indicated concentration of machilin A for 24 h. The viabilities of cells were evaluated by MTT assay.
(1 picture or pasted object on this page, not shown here)

For `C[C@H](Cc1ccc2c(c1)OCO2)[C@@H](C)Cc1ccc2c(c1)OCO2` [MA, bis(3,4-methylenedioxy)-8,8’-lignan], the Kd [1] was 29 µM, the “Lactate (production)” value ([2]; MA 10 µM) was 3680 ± 90 µM and the “Lactate (production)” value ([2]; MA 50 µM) was 2940 ± 170 µM. The “Lactate (production)” value ([3]; MA 10 µM) was 3420 ± 370 µM, the “Lactate (production)” value ([3]; MA 50 µM) was 2730 ± 40 µM and the “increase of lactate production in hypoxic condition” value ([3]; machilin A 30 μM, hypoxia) was “significantly reduced”. The “Lactate (production)” value ([4]; MA 10 µM) was 2760 ± 60 µM, the “Lactate (production)” value ([4]; MA 50 µM) was 2480 ± 60 µM and the “Lactate (production)” value ([5]; MA 10 µM) was 1070 ± 150 µM. The “Lactate (production)” value ([5]; MA 50 µM) was 770 ± 190 µM, the “Lactate (production)” value ([6]; MA 10 µM) was 3220 ± 50 µM and the “Lactate (production)” value ([6]; MA 50 µM) was 2700 ± 60 µM. The “Lactate (production)” value ([7]; MA 10 µM) was 1140 ± 320 µM, the “Lactate (production)” value ([7]; MA 50 µM) was 670 ± 150 µM and the “Lactate (production)” value ([8]; MA 10 µM) was 1120 ± 40 µM. The “Lactate (production)” value ([8]; MA 50 µM) was 730 ± 10 µM, the “Lactate (production)” value ([9]; MA 10 µM) was 2360 ± 260 µM and the “Lactate (production)” value ([9]; MA 50 µM) was 2040 ± 380 µM. For the same molecule, the “Lactate (production)” value ([10]; MA 10 µM) was 510 ± 60 µM, the “Lactate (production)” value ([10]; MA 50 µM) was 470 ± 70 µM and the “Lactate (production)” value ([11]; MA 10 µM) was 2250 ± 160 µM. For the same molecule, the “Lactate (production)” value ([11]; MA 50 µM) was 1760 ± 100 µM, the “in vivo toxicity to liver and kidney” value [12] was “no significant toxic effect” and the “growth of RAW264.7 macrophage cells” value [13] was “did not directly inhibit”.
